Laboratory results published in US20180306819A1, “ANTI-PLATELET RESPONSE AND REACTIVITY TEST USING SYNTHETIC COLLAGEN” (JNC CORPORATION, priority 2012, published 2018).

B1: abciximab: Fab Fragment Chimeric monoclonal antibody 7E3 (GP IIbIIIa receptor blocker) (antibody, chains of the INN, looked up, V domains shown)
VH: EVQLQQSGTVLARPGASVKMSCEASGYTFTNYWMHWVKQRPGQGLEWIGAIYPGNSDTSYIQKFKGKAKLTAVTSTTSVYMELSSLTNEDSAVYYCTLYDGYYVFAYWGQGTLVTVSA
VL: EIVLTQSPVTLSVTPGDSVSLSCRASRDISNNLHWFQQTSHESPRLLIKYASQSMSGIPSRFSGSGSGTDFTLSINSVETEDFGMYFCQQTNSWPYTFGGGTKLEIK
modifications: Fab

Test system: normal human platelet rich plasma
Assay: Agonist-induced platelet aggregation in platelet rich plasma, PAP 8E aggregometer
Type: cell-based
Conditions: non-aspirinized plasma; for effect on ADP-induced aggregation: ADP 10 μM; for effect on Bio/Data collagen-induced aggregation: Bio/Data collagen 190 μg/mL; for effect on Chrono Log collagen-induced aggregation: Chrono Log collagen 10 μg/mL; for effect on arachidonic acid-induced aggregation: arachidonic acid 500 μg/mL; for effect on aggregation induced by lower concentrations of synthetic collagen: synthetic collagen 32 ng/mL and lower (32, 16, 8 ng/mL); for effect on aggregation induced by 64 ng/mL synthetic collagen: synthetic collagen 64 ng/mL
Protocol: ADP was obtained from Bio/Data Corporation, Horsham, Pa. Each vial was reconstituted with 1 mL of deionized water to make a 100 μM working solution. The final concentration of ADP in the aggregation cuvette was 10 μM.
Arachidonic acid was obtained from Bio/Data Corporation, Horsham, Pa. Each vial was reconstituted with 0.5 mL deionized water to make a 5 mg/mL working solution. The final concentration of arachidonic acid in the aggregation cuvette was 500 μg/mL.
Collagen was obtained from Bio/Data Corporation, Horsham, Pa. Each vial was reconstituted with 0.5 mL deionized water to make a 1.9 mg/mL working solution. The final concentration of Bio/Data collagen in the aggregation cuvette was 190 μg/mL.
Collagen was obtained from Chrono Log Corporation, Havertown, Pa. as a 1 mg/mL solution. A working solution of 100 μg/mL was made by dilution with physiologic saline. The final concentration of Chrono Log collagen in the aggregation cuvette was 10 μg/mL.
Synthetic collagen was provided by JNC Corporation, Yokohama, Japan at working concentrations of 80, 160, 320 and 640 ng/mL. The final concentrations of synthetic collagen in the aggregation cuvette were 64, 32, 16 and 8 ng/mL.
Approval for the collection of whole blood from healthy human volunteers was granted from the Institutional Review Board of the Health Sciences Division of Loyola University Chicago. Whole blood was drawn using a double syringe technique from the antecubital vein and anticoagulated by the addition of 1 part 3.2% sodium citrate to (9 parts blood to 1 part citrate). Citrated blood was centrifuged at 80×g at room temperature for 15 minutes to make platelet rich plasma (PRP). Supernatant PRP was collected and kept at room temperature in capped tubes. The remaining citrated blood was recentrifuged at 1,100×g for 15 minutes to make platelet poor plasma (PPP). The platelet count of the PRP was determined using an ICHOR II Analyzer, Helena Laboratories, Beaumont, Tex. Platelet count in the PRP was adjusted to 250,000-300,000/μl by the addition of homologous PPP.
Platelet aggregation was measured using a PAP 8E platelet aggregometer (Bio/Data). Each well was blanked using PPP. 25 μl of saline or antiplatelet drug and 200 μl of PRP were added to cuvettes containing magnetic stir bars and incubated for three minutes to equilibrate the sample to 37° C. 25 μl of agonist was added to each cuvette and the aggregation profile was monitored until a plateau was achieved. Results were tabulated in terms of maximal aggregation level. Under some reaction conditions, reversible aggregation was observed. This was most commonly observed with ADP and arachidonic acid-induced aggregation in the presence of ticagrelor or cilostazol. Final aggregation levels were also tabulated.

Molecule	inhibition at 25 µM (Homo sapiens, Platelet, drug at 25 μM, read-out: inhibition of ADP-induced aggregation) [%]	effect on ADP-induced aggregation	effect on ADP-induced aggregation (listed as Cilostazol)	effect on Bio/Data collagen-induced aggregation	effect on Chrono Log collagen-induced aggregation	effect on arachidonic acid-induced aggregation	arachidonic acid-induced aggregation level (drug at concentrations ≥12.5 μM, 95% in the absence of drug) [%]	effect on aggregation induced by lower concentrations of synthetic collagen	effect on aggregation induced by 64 ng/mL synthetic collagen	inhibition of agonist-induced aggregation (all agonists) (concentration range 1.25-5 μg/mL, FIG. 11)
O=C1CCc2cc(OCCCCc3nnnn3C3CCCCC3)ccc2N1 [cilostazol, Cilostazol]	~30	minimally affected	weaker, concentration-dependent inhibition	did not inhibit aggregation	did not inhibit aggregation	strongly inhibited	~20	the anti-platelet effect of higher concentrations of cilostazol could be observed	did not inhibit aggregation	
CCCSc1nc(N[C@@H]2C[C@H]2c2ccc(F)c(F)c2)c2nnn([C@@H]3C[C@H](OCCO)[C@@H](O)[C@H]3O)c2n1 [ticagrelor, (1S,2S,3R,5S)-3-[7-[[(1R,2S)-2-(3,4-difluorophenyl)cyclopropyl]amino]-5-propylsulfanyltriazolo[4,5-d]pyrimidin-3-yl]-5-(2-hydroxyethoxy)cyclopentane-1,2-diol]		strongly inhibited		Neither Bio/Data collagen, Chrono Log collagen nor 64 ng/mL synthetic collagen was markedly impacted	Neither Bio/Data collagen, Chrono Log collagen nor 64 ng/mL synthetic collagen was markedly impacted	inhibited to a similar extent		antiplatelet effects of Ticagrelor® could be identified	Neither Bio/Data collagen, Chrono Log collagen nor 64 ng/mL synthetic collagen was markedly impacted	
B1		inhibited aggregation		only observed at the 5 μg/mL concentration	only observed at the 5 μg/mL concentration	most sensitive for detecting the presence of abciximab		most sensitive for detecting the presence of abciximab	inhibited by abciximab to a comparable degree	concentration-dependent inhibition
